Test results taken from patent US8377886B2, “Use of gamma secretase inhibitors and notch pathway inhibitors for treatment and prevention of renal disease” (Albert Einstein College of Medicine of Yeshiva University, priority 2007, dated 2013).

How the values were obtained:
podocytes [1] = experiment: ICN1 induced podocyte apoptosis, AnnexinV staining; type: cell-based, mouse; conditions: for ICN1 induced increase in annexinV positive cell number: tamoxifen 1.5 μM, counted 24 hrs after induction, GSIXX 4 μM, pifithrin-alpha 15 μM
Description: (§1) Infection of Podocytes. Cultivation of conditionally immortalized mouse podocytes was performed as described^41. Briefly, cells were propagated in the undifferentiated state on type1 collagen at 33° C. in RPMI 1640 in the presence of 10% FBS (Hyclone) and 20 U/ml interferon γ (Sigma Chemical Co., St Louis, Mo.). To induce differentiation, cells were maintained at 37° C. without interferon for 10 days. Podocytes were infected with MIGR-ICN1-EGFP (kind gift of Dr Warren Pear, University of Pennsylvania) or pBMN-EGFP (Orbigen) retrovirus. Briefly vectors were transfected into Phoenix Eco packaging cells (Orbigen) and supernatant was harvested 60-72 hrs after transfection. Podocytes were infected with virus containing supernatant (3-4 times, every 6 hours) in the presence of polybrene […]. After 24 hrs of infection, the medium was changed and cells were either treated with tamoxifen to induce ICN1 expression or left untreated. Infection efficiency was estimated under fluorescence microscope by the presence of GFP positive cells as it ranged from 70-80%.
AnnexinV staining. AnnexinV staining was performed using AnnexinV-Alexa 568 staining kit (Roche). Cells were cultured in 24 well plates, washed and incubated with AnnexinV-Alexa 568 in incubation buffer according to manufacturer's instruction. Cells were washed, and fluorescent labeled cells were counted. Total number of cells were counted by DAPI counterstain. Nuclear condensation was assessed by DAPI staining.

ICN1 = experiment: TGFβ induced increase of ICN1 levels in cultured podocytes, Western blot; type: cell-based, mouse; conditions: 5 ng/ml TGFβ; 100 nM GSI XX; 10 μM SB203580, PD or LY; GSI IX and GSI X data not shown
Description: as §1
Western Blotting. Cells were lysed in RIPA buffer in the presence of protease and phosphatase inhibitors; equal amount (30 μg) of protein was loaded on 10% SDS gels. Gels were transferred to PVDF membranes (Bio-Rad), blocked in 5% milk and incubated with the primary antibody (1:1,000 dilution) overnight at 4° C. in 1% milk. Membranes were incubated with HRP conjugated anti-mouse or anti-rabbit secondary antibody (Jackson Immunologicals) for 1 hr at room temperature and developed using ECL method (Pierce). The following primary antibodies were used in this study; phospho-p38 (#4631), total p38 (#9217), phospho-AKT (#4051), total AKT (#9272), cleaved PARP, cleaved caspase3, phospho-53 were from Cell Signaling, phospho-JNK, p53, p21 were from Santa Cruz Val^1744ICN1 and β-actin antibody was purchased from Abcam (Cambridge, Mass.).

[2] = test system: Smad3 and Akt phosphorylation; experiment: TGFβ induced Smad3 and Akt phosphorylation in podocytes, Western blot; type: cell-based, mouse; conditions: 5 ng/ml TGFβ; GSI XX 1 μM
Description: as §1
(§2) Western Blotting. Cells were lysed in RIPA buffer in the presence of protease and phosphatase inhibitors; equal amount (30 μg) of protein was loaded on 10% SDS gels. Gels were transferred to PVDF membranes (Bio-Rad), blocked in 5% milk and incubated with the primary antibody (1:1,000 dilution) overnight at 4° C. in 1% milk. […]

p53 = experiment: TGFβ induced phosphorylated p53 levels in podocytes, Western blot; type: cell-based, mouse; conditions: after 4 hrs of incubation with TGFβ
Description: as §1, §2

podocytes [3] = experiment: TGFβ induced podocyte apoptosis, annexinV positive cell number; type: cell-based, mouse; conditions: 24 hrs following TGFβ; pre-incubation GSIXX 1 μM or pifithrinα 15 μM
Description: as §1
AnnexinV staining. AnnexinV staining was performed using AnnexinV-Alexa 568 staining kit (Roche). […] Cells were washed, and fluorescent labeled cells were counted. Total number of cells were counted by DAPI counterstain. Nuclear condensation was assessed by DAPI staining.

PAN treated rats = experiment: PAN induced nephrotic syndrome in rats; type: in vivo, rat
Description: Male Sprague Dawley rats (75-100 gr˜4 weeks old) were purchased from Charles Rivers. Animals were injected with puromycin aminonucleoside 20 mg/kg ip ×1. BDZ (dissolved in Methocell, Tween-80) was administered ip 500 μg/100 gr rat once a day. Animals were sacrificed on day 8 after PAN administration.
Phenotypic analysis. Albuminuria was determined using Mouse or Rat Albumin specific ELISA kits (Exocell and Bethyl Laboratories) and urine creatinine was determined using Creatinine companion (Exocell), following manufacturer's protocol.
Histologic analysis. Histologic analysis was performed on formalin fixed paraffin embedded kidney sections that was stained with Periodic-Acid-Schiff (PAS) or Gomori Trichrome. Slides were examined and pictures were taken with Nikon Eclipse TE300 microscope and SPOT Diagnostic CCD camera. Transmission electron microscopy was performed in the Analytical Imaging Facility at AECOM on glutaraldehyde fixed, epoxy embedded kidney samples stained with uranyl acetate and lead citrate. Samples were evaluated using JEOL 1200EX, electron microscope (AECOM, Analytical Imaging Facility).
Immunohistochemistry. Immunohistochemistry was performed on formalin fixed paraffin embedded kidney sections using the following primary antibodies Val^1744ICN1 (Abcam), ICN2 (Abeam). Staining was visualized using peroxidase conjugated anti mouse of anti rabbit Vectastain Elite kit and DAB (Vector Labs). Terminal d-UTP labeling (TUNEL) staining was performed using TUNEL kit (Chemicon) following manufacturer's instructions. For fluorescent labeling, 5 μm frozen sections were fixed in ice cold acetone, blocked with 10% horse serum and incubated with primary antibodies, WT-1 (Santa Cruz), nephrin (kind gift of Dr Lawrence Holzman, University of Michigan), synaptopodin and podocin (Sigma-Aldrich), p21 (Santa Cruz), and developed using FITC conjugated anti-mouse secondary antibody or Cy3 conjugated anti-rabbit antibodies (Jackson laboratory) and mounted with Fluoromount).
Glomerular isolation. Glomerular isolation was performed using serial sieving of 120, 100 and 71 μm diameter.
QRT-PCR. RNA was prepared from isolated glomeruli or from podocytes using RNAeasy Mini kit (Qiagen, Valencia). The quality was analyzed on agarose gels and the quantity was measured on NanoDrop. 1 ug RNA was reverse transcribed using cDNA Archival Kit (Applied Biosystems). QRT-PCR analysis was performed using ABI 7900HT-Sequence Detection System. SYBR Green Master Mix and 3-step standard cycling conditions and sequence specific primers for QRT-PCR analysis were used. Melting curve was examined to verify that a single product was amplified. For quantitative analysis all samples were normalized to ubiquitin C and HPGRT gene expression using the ΔΔCT value method.
It was examined whether the Notch pathway inhibition (with the use of a gamma-secretase inhibitor) could be used as a potential strategy for the treatment of albuminuric glomerular disease^31. Rats we treated with DBZ 500 μg/100 gr ip. daily stating 12 hrs prior to PAN injection. Animals were sacrificed on day 8 as the PAN treated rats appeared moribund and most of them had severe nephrotic syndrome (ascites and edema). DBZ treatment normalized the Notch pathway gene expression increase of PAN treated rats (FIG. 1e, FIG. 12a). […] Similarly, expression of p53 and p21 was lower in BDZ treated rats compared to PAN only injected animals (FIG. 110.

Balb/c mice = experiment: Adriamycin (doxorubicin) induced nephrotic syndrome of mice; type: in vivo, mouse; conditions: male Balb/c mice, 12 days following 12 mg/kg doxorubicin (adriamycin); doxorubicin only 2659 μg/mg creatinine
Description: Adriamycin-induced nephrotic syndrome was induced in 8 weeks old male Balb/c mice (n=10/per each groups) via intravenous injection (to the tail vein) of 12 mg/kg adriamycin. Animals were sacrificed 12 days following the injection. All animal studies were approved by the Animal Care Committee at the Albert Einstein College of Medicine (AECOM). Animals were maintained under specific pathogen free conditions. Phenotypic analysis. Albuminuria was determined using Mouse or Rat Albumin specific ELISA kits (Exocell and Bethyl Laboratories) and urine creatinine was determined using Creatinine companion (Exocell), following manufacturer's protocol.

FA-treated mice = experiment: Murine folic acid (FA)-induced nephrotoxicity model; type: in vivo, mouse; conditions: FA mice treated for 1 week with DBZ
Description: Experiments were conducted using the murine folic acid (FA)-induced nephrotoxicity model, which is characterized by acute tubular injury followed by both tubular regeneration and chronic changes such as patchy interstitial fibrosis. Strong upregulation was found for mRNA levels of Notch 1-4, the ligands Jagged 1 and 2, delta like-1 and -4, and the downstream target genes Hes1, Hey1, and HeyL in total kidney homogenates 1 day after FA injection, which remained increased up to 1 week.
To further investigate the role of Notch in FA-induced renal injury, mice were treated for 1 week with the gamma-secretase inhibitor (GSI) dibenzazepine (DBZ) that blocks activation of the Notch pathway by interfering with Notch cleavage. […] In control kidneys, large numbers of interstitial fibroblasts and significant tubulointerstitial fibrosis were observed indicating a misdirected renal regeneration.

[4] = test system: unilateral ureteral obstruction model; experiment: Unilateral ureteral obstruction model of renal tubulointerstitial fibrosis; type: in vivo, mouse; conditions: animals injected with GSI XX (DBZ)
Description: Increased Notch pathway gene expression was also observed in mouse models of chronic tubulointerstitial fibrosis (unilateral ureteral obstruction) and in patients with chronic renal disease and tubulointerstitial fibrosis. […] The role and regulation of Notch pathway genes were also examined in other models of tubulointerstitial fibrosis. […] To examine the role of Notch activation in this model, animals were injected with GSI XX (DBZ). DBZ reduced the expression of Notch target gene HeyL and reduced expression of pro-fibrotic genes collagen, fibronectin and alpha smooth muscle action.

p21 = experiment: TGFβ induced p21 protein expression in podocytes, Western blot; type: cell-based, mouse; conditions: after 24 hrs TGFβ
Description: as §1, §2

[5] = PAN rats, DBZ 500 μg/100 gr ip daily

C[C@H](NC(=O)Cc1cc(F)cc(F)c1)C(=O)N[C@@H]1C(=O)N(C)c2ccccc2-c2ccccc21 [DBZ, (S,S)-2-[2-(3,5-Difluorophenyl)acetylamino]-N-(5-methyl-6-oxo-6,7-dihydro-5H-dibenzo[b,d]azepin-7-yl)propionamide]
ICN1 induced increase in annexinV positive cell number (podocytes [1]; listed as GSI XX): did not alter
ICN1 induced increase in annexinV positive cell number (podocytes [1]; listed as GSIXX): did not affect
TGFβ induced increase of ICN1 levels (ICN1): fully sensitive
TGFβ induced Smad3 and Akt phosphorylation [2]: did not interfere
TGFβ induced increase of phosphorylated p53 levels (p53): fully sensitive
TGFβ induced increase in annexinV positive cell number (podocytes [3]): prevented
Notch pathway gene expression increase of PAN treated rats (PAN treated rats; DBZ 500 μg/100 gr ip daily from 12 hrs prior to PAN, QRT-PCR): normalized
albuminuria (albumin/creatinine ratio) (PAN treated rats; PAN rats, 500 μg/100 gr ip daily, compared to PAN only, after 6 days): significantly less
foot process effacement (EM analysis) (PAN treated rats; [5]): almost fully abrogated
podocyte apoptosis (TUNEL staining) (PAN treated rats; [5]): fully prevented
decrease in nephrin and podocin levels (mRNA and protein) (PAN treated rats; PAN rats, DBZ 500 μg/100 gr ip daily, day 8): protected
expression of p53 and p21 (PAN treated rats; PAN rats, whole kidney lysates QRT-PCR, compared to PAN only): lower
albuminuria (Balb/c mice): 800 μg/mg creatinine
FA-induced upregulation of fibrotic remodeling genes (TGF-β, fibronectin, MMP-2 and 9) (FA-treated mice): greatly reduced
increase in serum creatinine (FA-treated mice): did not affect
rate of tubular apoptosis (FA-treated mice): did not affect
rise in HeyL expression (FA-treated mice): completely blunted
tubular damage scores (FA-treated mice): did not affect
expression of Notch target gene HeyL [4]: reduced
expression of pro-fibrotic genes collagen, fibronectin and alpha smooth muscle action [4]: reduced
tubulointerstitial fibrosis (evaluated on PAS staining) [4]: reduced

C[C@H](NC(=O)Cc1cc(F)cc(F)c1)C(=O)N[C@H](C(=O)OC(C)(C)C)c1ccccc1 [GSI IX, N—[N-(3,5-Difluorophenacetyl-L-alanyl)]-S-phenylglycine t-Butyl Ester]
TGFβ induced increase of ICN1 levels (ICN1): fully sensitive

CC(C)C[C@H](NC(=O)[C@H](Cc1ccccc1)C[C@@H](O)[C@H](Cc1ccccc1)NC(=O)OC(C)(C)C)C(=O)N[C@@H](Cc1ccccc1)C(N)=O [GSI X, {1S-Benzyl-4R-[1-(1S-carbamoyl-2-phenethylcarbamoyl)-1S-3-methylbutylcarbamoyl]-2R-hydroxy-5-phenylpentyl}carbamic Acid tert-butyl Ester]
TGFβ induced increase of ICN1 levels (ICN1): fully sensitive

COc1cccc(-c2cc(=O)c3ccccc3o2)c1N [PD98059]
TGFβ induced increase of ICN1 levels (ICN1): not sensitive

C[S+]([O-])c1ccc(-c2nc(-c3ccncc3)c(-c3ccc(F)cc3)[nH]2)cc1 (stereo not drawn) [SB203580]
ICN1 induced increase in annexinV positive cell number (podocytes [1]): did not alter
TGFβ induced increase of ICN1 levels (ICN1): not sensitive

Cc1ccc(C(=O)Cn2c3c(sc2=N)CCCC3)cc1 [pifithrin alpha]
ICN1 induced increase in annexinV positive cell number (podocytes [1]): decreased
TGFβ induced increase in p21 protein expression (p21): blocked
TGFβ induced increase in annexinV positive cell number (podocytes [3]): prevented

Z-vad
ICN1 induced apoptosis (AnnexinV/GFP positive cells) (podocytes [1]; podocytes with tamoxifen-induced ICN1, pretreatment with Z-vad (10 μM) or Z-LEHD (10 μM)): prevented
